Results as given in patent publication US12173276B2 (Alliance for Sustainable Energy, LLC, priority 2021, dated 2024).

Tested on: P. renovo
Assay: plating assay to determine phosphorus source utilization capacity
Assay type: cell-based, Picochlorum renovo
Conditions: wild-type P. renovo, agar plates, 0.313 mM phosphite addition, 5-day outgrowth
Protocol: FIG. 1 depicts a plating assay to determine phosphorus source utilization capacity in P. renovo.
Microalgae were cultivated under constant illumination at […] of light, 2% CO2, and constant temperature of 33° C. These conditions were utilized to generate seed cultures for transformation and outgrowth of transformants to generate clonal isolates on agar plates. Media was comprised of a modified f/2 recipe, as described previously. For phosphorus source utilization analyses, agar plates were prepared as described previously, utilizing 8.75 g/L salinity, via dilution of seawater. […] Approximately 4.75×10^8 early log phase cells were plated and incubated under the above conditions; plates were imaged after 5 days of growth.

O=[PH](O)O [phosphite, Sodium phosphite dibasic pentahydrate]
bleaching compared to control with no added phosphorus source: noticeable bleaching occurred | growth with phosphite as the sole phosphorus source: no growth was observed
